The source of these data is patent US4184849A, “Mixed agglutination” (Technicon Instruments Corporation, priority 1977, dated 1980).

Holding throughout (format): binding
Assay [1] relates to sheep anti-digoxin serum. Kind of assay: assay of digoxin by mixed agglutination of Ab-latex and conjugate-latex, selective optical counting of unagglutinated particles. The settings on record: Table 1. The procedure:
This Example illustrates the assay of digoxin.
(§1) Latex particles (0.09μ diameter, polystyrene, Dow Chemical Co.) as a 10% by weight suspension as supplied) was diluted 20-fold in dilute glycine-buffered saline (dGBS-20 mM glycine, 34 mM NaCl, pH 9) containing 0.2 mg/ml of the Rivanol-soluble fraction (prepared by the method of Stastny and Horejsi, Clin. Chim. Acta (1961), 6, 782) of sheep anti-digoxin serum, and incubated at room temperature for 30 minutes. 1/10th volume of 10 mg bovine serum albumin (bSA) per ml. dGBS was then added (to ensure that the latex was completely coated with protein), and after a further 30 minutes incubation, the coated latex was washed twice by centrifugation and resuspended in dGBS. Finally, the coated latex was resuspended as a 0.5% suspension in GBS (0.1 M glycine, 0.17 M NaCl, pH 9) containing 1 mg bSA/ml.
(§2) The same procedure was followed as in (a) except that the latex used was of 1.1μ diameter and incubation was performed at an Ag-conjugate concentration of 4μg/ml, followed by the addition of 1/10 volume of 10 mg/ml transferrin. The Ag-conjugate was prepared by the oxidative coupling of digoxin and ethylene glycol followed by reductive coupling of this complex to the protein. 50 mg digoxin dissolved in 2 ml absolute alcohol was incubated for 25 minutes with 2 ml 0.1 M NalO4, then 60 μl of ethylene glycol was added for a further 5 minutes incubation. This reaction mixture was then added to a solution of 60 mg human transferrin in 2 ml water, brought to pH 9.5 by addition of 5% Na2 CO3, and incubated for 45 minutes. 30 mg NaBH4 freshly dissolved in 2 ml water was added and incubation was continued for 3 hours. At the end of this time, the pH of the reaction mixture was reduced to 6.5 by addition of 1 M HCOOH to destroy any unreacted NaBH4, and after a further hour of incubation, 1 M NH4 OH was added to raise the pH to 8.5, and the preparation was dialysed against running water for 2 days at 4° C. (all other operations were at room temperature).
(§3) Sera used for the assay of digoxin were first heated with acid to reduce serum intereference. 25 μl of serum was heated to 56° C. for 10 minutes with 25 μl of 0.1 N HCl, then made alkaline by the addition of 10 μl 2 M Na2 CO3. To these heated sera were added 25 μl of Ab-latex (diluted 1:10 with GBS containing 1 mg bSA/ml) and 25 μl of conjugate-latex (diluted 1:4 with GBS containing 1 mg human transferrin/ml). They were then incubated in vertically-positioned tubes agitated horizontally on a shaking incubator for 15 minutes at room temperature. At the end of this time, the tube contents were diluted with 5 ml GBS and after a further 20-fold dilution with GBS containing 0.01% Tween 20, passed through the flowcell of a Technicon Autocounter at 2 ml/min. The relative numbers of unagglutinated (monomer) latex particles in each sample were determined (as also may be the relative numbers of agglutinated particles) by selective optical counting.
In the selective optical counting of particles, the amount of light scattered by a particle is dependent on the size of the particle; in turn, the electronic impulse generated in the photocell will be proportional to the size of the particle, and particles of different sizes may be counted separately. Table 2 illustrates the improvement in precision of determination (by providing a more extended range for the standard curve) that may be obtained by counting only unagglutinated particles (monomers) as opposed to counting all particles (total). […]

For assay [2], the system named is sheep anti-digoxin serum. The experiment in a line: latex immunoassay of digoxin read by turbidimetry (optical density at 400 nm).
Assay [3] relates to sheep anti-digoxin serum. The experiment in a line: assay of digoxin by mixed agglutination of Ab-latex and conjugate-latex, selective optical counting of unagglutinated particles. The settings on record: Table 3.
For assay [4], the system named is sheep anti-digoxin serum. Kind of assay: Example 3: digoxin mixed agglutination with equal-sized or different-sized latex. The procedure: as §1, §2, §3
Example 1 was repeated using latex particles of the same (as opposed to different) size and the following results were obtained: […]

The subject of assay [5] is rabbit anti-thyroxine (T4) serum. Kind of assay: assay of thyroxine by mixed agglutination. The settings on record: maximum = Ag-latex alone. The procedure:
This Example illustrates the assay of thyroxine. […] After incubation at 0° for 1 hour, 250 μl of 25% ethanolamine in PBS was added, and the incubation prolonged for 30 minutes. The latex was then washed twice by centrifugation and resuspension in fresh PBS (1 ml each time), and then dialysed for 16 hours at 4° against 1 l PBS. […] The method of this latex preparation was exactly the same as for the assay of digoxin (Example 1) except that the Ab was from rabbit anti-thyroxine (T4) serum. […] The maximum value in this case was for the Ag-latex alone, all the above values being found in the presence of Ag-latex as well.

A short description of assay [6]: latex immunoassay of hPL, comparison of counting methods. To be noted: 2.5 ngs hPL/ml. The text has this: In the selective optical counting of particles, the amount of light scattered by a particle is dependent on the size of the particle; in turn, the electronic impulse generated in the photocell will be proportional to the size of the particle, and particles of different sizes may be counted separately. Table 2 illustrates the improvement in precision of determination (by providing a more extended range for the standard curve) that may be obtained by counting only unagglutinated particles (monomers) as opposed to counting all particles (total). The Table also illustrates the great increase in sensitivity that may be realized by calculating the ratio of unagglutinated to agglutinated particles (monomer/polymer ratio). By counting particles at all, an increase in sensitivity and precision may be realized by comparison with other methods of end-point determination.

`C[C@H]1O[C@@H](O[C@H]2[C@@H](O)C[C@H](O[C@H]3[C@@H](O)C[C@H](O[C@H]4CC[C@@]5(C)[C@H](CC[C@@H]6[C@@H]5C[C@@H](O)[C@]5(C)[C@@H](C7=CC(=O)OC7)CC[C@]65O)C4)O[C@@H]3C)O[C@@H]2C)C[C@H](O)[C@@H]1O` [Digoxin, digoxin]: the “Unagglutinated Particles (as % of maximum)” value in the assay on sheep anti-digoxin serum [1] (digoxin 0.31 ng/ml in serum) was 40%; in the assay on sheep anti-digoxin serum [1] (digoxin 0.625 ng/ml in serum) it was 44%; in the assay on sheep anti-digoxin serum [1] (digoxin 1.25 ng/ml in serum) it was 63%; in the assay with sheep anti-digoxin serum [1] (digoxin 2.5 ng/ml in serum), 90%; in the assay with sheep anti-digoxin serum [1] (digoxin 5.0 ng/ml in serum), 100%; with sheep anti-digoxin serum [4] (Different-sized latex, digoxin 1 ng/ml in serum), 30%. For the same molecule, the “Unagglutinated Particles (as % of maximum)” value turned out to be 76% in the assay with sheep anti-digoxin serum [4] (Different-sized latex, digoxin 4 ng/ml in serum); 100% in the assay on sheep anti-digoxin serum [4] (Different-sized latex, digoxin 10 ng/ml in serum); 78% in the assay on sheep anti-digoxin serum [4] (Equal-sized latex, digoxin 1 ng/ml in serum); 95% in the assay on sheep anti-digoxin serum [4] (Equal-sized latex, digoxin 4 ng/ml in serum); 100% with sheep anti-digoxin serum [4] (Equal-sized latex, digoxin 10 ng/ml in serum). Further, the Turbidity is 74 percentage of that found in th in the assay on sheep anti-digoxin serum [2] (digoxin 0.31 ng/ml in serum); 71 percentage of that found in th in the assay with sheep anti-digoxin serum [2] (digoxin 0.625 ng/ml in serum); 82 percentage of that found in th in the assay with sheep anti-digoxin serum [2] (digoxin 1.25 ng/ml in serum); 100 percentage of that found in th in the assay with sheep anti-digoxin serum [2] (digoxin 2.5 ng/ml in serum); 100 percentage of that found in th in the assay on sheep anti-digoxin serum [2] (digoxin 5.0 ng/ml in serum). In addition, the “Particle count (monomers)” value is 40 percentage of that found in th in the assay on sheep anti-digoxin serum [3] (digoxin 0.31 ng/ml in serum); 44 percentage of that found in th in the assay with sheep anti-digoxin serum [3] (digoxin 0.625 ng/ml in serum); 63 percentage of that found in th with sheep anti-digoxin serum [3] (digoxin 1.25 ng/ml in serum); 90 percentage of that found in th with sheep anti-digoxin serum [3] (digoxin 2.5 ng/ml in serum); 100 percentage of that found in th with sheep anti-digoxin serum [3] (digoxin 5.0 ng/ml in serum).
Take `N[C@@H](Cc1cc(I)c(Oc2cc(I)c(O)c(I)c2)c(I)c1)C(=O)O` [T4, thyroxine]: the “Particle concentration (% maximum)” value in assay [5] (10 ng T4/ml serum) amounted to 51.5%; in assay [5] (50 ng T4/ml serum), 59.5%; in assay [5] (200 ng T4/ml serum) it was 89%.

B1: hPL: human placental lactogen (protein, UniProt P0DML2 27-217, looked up)
Chorionic somatomammotropin …: VQTVPLSRLFDHAMLQAHRAHQLAIDTYQEFEETYIPKDQKYSFLHDSQTSFCFSDSIPTPSNMEETQQKSNLELLRISLLLIESWLEPVRFLRSMFANNLVYDTSDSDDYHLLKDLEEGIQTLMGRLEDGSRRTGQILKQTYSKFDTNSHNHDALLKNYGLLYCFRKDMDKVETFLRMVQCRSVEGSCGF
As for B1, the Monomer/polymer ratio in assay [6] is recorded as 81 percentage of that obtained in.
